Residues, ends and D or L forms follow the SMILES beside them.
What was measured:
[1] = system: human non-small cell lung cancer A549 xenograft; format: in vivo; details: vs vehicle; for tumor growth: PTX 20 mg/kg as comparator
Experimental: (§1) PTX, paclitaxel. ****, P<0.0001 as compared with vehicle-treated animals.
(§2) PTX, paclitaxel. ****, p<0.0001 as compared with vehicle-treated animals.
(§3) Abbreviations: PTX, paclitaxel; PBS, phosphate-buffer saline.
Treatment persisted for 21 days. Mean tumor volumes are calculated and plotted. Body weighs are plotted.

[2] = system: human non-small cell lung cancer H292 xenograft; test: H292 xenograft mouse model; format: in vivo, mice; details: vs vehicle
Text: as §1, §2, §3

[3] = system: C57BL/6 mice with LPS-induced septic shock; test: LPS-induced septic shock: survival; format: in vivo, mouse; details: free peptides, at this dose; 30 mg/kg LPS i.p.
Experimental: (§4) One hour later, mice received i.p. injection of 30 mg/kg LPS from E. coli 055:B5 (Sigma). In some experiments, all formulations were i.p. administered 1 and 3 h after LPS injection. The viability of mice was examined hourly. Body weights were measured daily. In all of the animal experiments, blood samples were collected via a sub-mandibular (cheek) bleed at 90 min after administration of LPS. Statistical analysis of survival curves was performed by the Kaplan-Meier test. Comparisons were made using two-tailed Student's t test. The production of cytokines in serum was measured by a standard sandwich cytokine ELISA procedure using TNF-alpha, IL-1beta and IL-6 ELISA kits (Pierce Biotechnology, Thermo Scientific, Rockford, Ill.) according to the instructions of the manufacturer. Statistical significances in cytokine analysis ELISA data were determined by two-tailed Student's t test.
(§5) Naïve, female C57BL/6 mice at 8 to 10 weeks of age (18 to 21 g) from the Jackson Laboratory were randomly grouped (10 mice per group) and i.p. injected with vehicle or the indicated doses of dexamethasone (DEX), GF9, G-TE21, G-HV21 and G-KV21. One hour later, mice received i.p. injection of 30 mg/kg LPS from E. coli 055:B5 (Sigma). […] Body weights were measured daily. […] Statistical significances in cytokine analysis ELISA data were determined by two-tailed Student's t test.

[4] = system: LPS-stimulated J774A.1 macrophages (TNF-alpha, IL-6, IL-1beta); test: In vitro cytokine release by LPS-stimulated macrophages; format: cell-based, mouse; details: 10 ng/ml after pre-incubation with HDL; LPS 1 μg/ml, 24 h
Experimental: (§6) The BALB/c murine macrophage cell line J774A.1 (ATCC TIB-67) were obtained from the American Type Culture Collection (ATCC, Manassas, Va.). Macrophages were cultured in 48-well plates (Corning, Cambridge, Mass.) for 24 h at 37° C. in the presence of LPS (1 μg/ml, Escherichia coli 055:B5, Sigma) in combination with 10 ng/ml peptides either pre-incubated or not with HDL. Cell-free supernatants were harvested and stored at −20° C. for later cytokine quantification. TNF-alpha, IL-6, and IL-1beta were assayed using commercial ELISA kits (Pierce Biotechnology, Thermo Scientific, Rockford, Ill.) according to the recommendations of the manufacturer. Results were represented as the mean±S.D. of three independent experiments. Statistical significances in in vitro macrophage uptake assay were determined by two-tailed Student's t test.
as §6, with “Macrophages were cultured in 48-well plates (Corning, Cambridge, Mass.) for 24 h at 37° C. in the presence of LPS (1 μg/ml, Escherichia coli 055:B5, Sigma) in combination with 10 ng/ml peptides either pre-incubated or not with HDL.” left out

J774 macrophages = test: in vitro macrophage uptake (endocytosis) of rho B-labeled peptides and lipopeptide complexes; format: cell-based, murine; details: for mechanism of macrophage endocytosis (scavenger receptors): J774, 4 h or 22 h, G-HV21 and G-KV21 in the presence of HDL; for in vitro macrophage uptake, presence vs. absence of HDL: rho B-labeled peptides
Experimental: In Vitro Macrophage Uptake of GF9HDL and GA/E31HDL A quantitative in vitro macrophage assay of endo-cytosis of rho B-labeled HDL-mimicking lipopeptide complexes by J774 macrophage was performed as described. (18-20) Briefly, BALB/c murine macrophage J774A.1 cells (ATCC) were cultured at 37° C. with 5% CO2 in Dulbecco's modified Eagle's medium (Cellgro Mediatech, Manassas, Va.) with 2 mM glutamine, 100 U/mL penicillin, 0.1 mg/mL streptomycin, and 10% heat-inactivated fetal bovine serum (Cellgro Mediatech) and grown to approximately 90% confluency in 12-well tissue culture plates (Corning Costar, Corning, N.Y.).
Cells were washed twice using phosphate-buffered saline and lysed using Passive Lysis Buffer (Promega, Madison, Wis.). Rho B fluorescence was measured in the lysates with 544-nm excitation and 590-nm emission filters, using a Fluoroscan Ascent CF fluorescence microplate reader (Thermo Labsystems, Vantaa, Finland). Protein concentrations in the lysates were measured using Bradford reagent (Sigma-Aldrich) and an MRX microplate reader (Dynex Technologies, Chantilly, Va.) according to the manufacturer's recommended protocol.

[5] = system: TNF-alpha, IL-1beta and IL-6; test: LPS-induced endotoxemia: in vivo serum cytokine release; design: species or system mouse; details: free peptides, at this dose; serum 90 min after 30 mg/kg LPS
Experimental: as §4, §5

| Compound | average tumor weights [1] | tumor growth [1] | tumor growth [2] | protection from LPS-induced septic shock / survival [3] | production of cytokines by LPS-stimulated macrophages [4] | mechanism of macrophage endocytosis (scavenger receptors) (J774 macrophages) | in vitro macrophage uptake, presence vs. absence of HDL (J774 macrophages) | LPS-stimulated cytokine production in vivo [5] |
| --- | --- | --- | --- | --- | --- | --- | --- | --- |
| CC(C)C[C@H](NC(=O)[C@H](Cc1ccccc1)NC(=O)CN)C(=O)N[C@@H](CO)C(=O)N[C@@H](CCCCN)C(=O)N[C@@H](CO)C(=O)N[C@@H](CC(C)C)C(=O)N[C@H](C(=O)N[C@@H](Cc1ccccc1)C(=O)NCC(=O)N[C@@H](CCC(=O)O)C(=O)N[C@@H](CCC(=O)O)C(=O)N[C@@H](CC[S+](C)[O-])C(=O)N[C@@H](CCCNC(=N)N)C(=O)N[C@@H](CC(=O)O)C(=O)N[C@@H](CCCNC(=N)N)C(=O)N[C@@H](C)C(=O)N[C@@H](CCCNC(=N)N)C(=O)N[C@@H](C)C(=O)N[C@@H](Cc1c[nH]cn1)C(=O)N[C@H](C(=O)O)C(C)C)C(C)C (stereo partly shown) [G-HV21] (HELM PEPTIDE1{G.F.L.S.K.S.L.V.F.G.E.E.[CS(=O)CC[C@H](N[*:1])C(=O)[*:2]].R.D.R.A.R.A.H.V}$$$$V2.0) | significantly decrease the tumor weight | significantly inhibit the tumor growth | significantly inhibit the tumor growth | protect mice from LPS-induced septic shock and prolongs survival of septic mice | inhibit production of cytokines by LPS-stimulated macrophages | SR-mediated in a time-dependent manner and is largely driven by SR-A | significantly increases | inhibit LPS-stimulated cytokine production in vivo |
| CC(C)C[C@H](NC(=O)[C@H](Cc1ccccc1)NC(=O)CN)C(=O)N[C@@H](CO)C(=O)N[C@@H](CCCCN)C(=O)N[C@@H](CO)C(=O)N[C@@H](CC(C)C)C(=O)N[C@H](C(=O)N[C@@H](Cc1ccccc1)C(=O)N[C@@H](Cc1c[nH]c2ccccc12)C(=O)N[C@@H](CCC(N)=O)C(=O)N[C@@H](CCC(=O)O)C(=O)N[C@@H](CCC(=O)O)C(=O)N[C@@H](CC[S+](C)[O-])C(=O)N[C@@H](CCC(=O)O)C(=O)N[C@@H](CC(C)C)C(=O)N[C@@H](Cc1ccc(O)cc1)C(=O)N[C@@H](CCCNC(=N)N)C(=O)N[C@@H](CCC(N)=O)C(=O)N[C@@H](CCCCN)C(=O)N[C@H](C(=O)O)C(C)C)C(C)C (stereo partly shown) [G-KV21] (HELM PEPTIDE1{G.F.L.S.K.S.L.V.F.W.Q.E.E.[CS(=O)CC[C@H](N[*:1])C(=O)[*:2]].E.L.Y.R.Q.K.V}$$$$V2.0) | significantly decrease the tumor weight | significantly inhibit the tumor growth | significantly inhibit the tumor growth | protect mice from LPS-induced septic shock and prolongs survival of septic mice | inhibit production of cytokines by LPS-stimulated macrophages | SR-mediated in a time-dependent manner and is largely driven by SR-A | significantly increases | inhibit LPS-stimulated cytokine production in vivo |
